The values that follow come from patent publication US9907791B2, “Ron inhibitors for use in preventing and treating bone loss” (UNIVERSITY OF UTAH RESEARCH FOUNDATION, priority 2014, dated 2018).

Experiment [1] has as its system DU4475 breast cancer cells. Briefly: Intratibial DU4475 tumor-induced osteolysis. In kind it is in vivo, mice. The settings on record: treatment began 3 days post tumor cell injection. The source says:
(§1) All procedures involving mice and experimental protocols were approved by the Institutional Animal Care and Use Committee (IACUC) of the University of Utah. The RonTK−/− mice which reside on the FVB background, were crossed with NOD.SCID mice for an immune-compromised mouse model. As a control, wild-type FVB mice were also crossed with NOD.SCID mice. The STK−/− mice, which are on a C57BL/6 background, were compared to wild-type C57BL/6 mice as controls. Mice for all experiments were 6 to 8 weeks of age. For intratibial injections, 1×10^5 (PyMTor DU4475) or 3×10^5 (MDA-MB-231) tumor cells were resuspended in 10 μL matrigel and injected into the right tibia of anesthetized female FVB (PyMT) or NOD.SCID mice carrying various alleles of RON. Osteolysis was assessed by X-ray radiography. Dissected hindlimbs from mice sacrificed at the final time point in each experiment were placed in the Kodak In-vivo Multispectral Imaging System FX and exposed to X-ray radiography at 35 kV for 100 sec. Excess tumor tissue was removed from the bones prior to X-ray. Osteolytic lesions were quantified using Image J software (NCBI). All images were compared to the contralateral leg as an internal control.
For in vivo experiments, the OSI-296 inhibitor was dissolved in 40% Trappsol with 0.01 M HCl, and mice were treated at a concentration of 200 mg/kg daily by oral gavage. […]

Experiment [2] deals with AKT. As to the kind of experiment: Western blot of osteoclast lysates, phospho-AKT. In kind it is cell-based, mice. The settings on record: osteoclasts. How it is done:
(§2) Cells were serum starved (0.5% FBS) for 3 hours prior to lysate collection. Inhibitors were added 1 hour prior to lysis and MSP was added 15 min prior to lysis when indicated. Cells were washed with 1×PBS and harvested in lysis buffer (25 mM Tris-HCl, pH 7.5, 0.42 M NaCl, 1.5 mM MgCl2, 0.5 mM EDTA, 1 mM DTT, 25% sucrose, and 0.1% Triton X-100) plus 100× protease arrest (Bioscience, Bozeman, Mont.) and 100× orthovanadate. Primary antibodies used for immunoblotting include: anti-MSP (Santa Cruz, sc-6090, Dallas, Tex.) at a 1:250 dilution, anti-pan Akt (Cell Signaling, #4691S, Beverly, Mass.) at a 1:1000 dilution, anti-pan Erk (Cell Signaling, #4695, Beverly, Mass.) at a 1:1000 dilution, anti-phospho Akt (Cell Signaling, #9271 L, Beverly, Mass.) at a 1:500 dilution, anti-phospho Erk (Cell Signaling, #4370S, Beverly, Mass.) at a 1:500 dilution, anti-Src (Cell Signaling, #2110, Beverly, Mass.) at a 1:500 dilution, and anti-phospho Src (Y416) (Cell Signaling, #2113, Beverly, Mass.) at a 1:500 dilution. The secondary antibodies used were HRP-conjugated anti-goat IgG (Santa Cruz, Dallas, Tex.) and anti-rabbit IgG (Santa Cruz, Dallas, Tex.). Chemiluminescent signals were detected using Immun-Star HRP (BioRad, Hercules, Calif.).

Experiment [3] can be described thus: Ovariectomy-induced bone loss (osteoporosis study). Type of experiment: in vivo. The settings on record: WT OVX mice, treatment from 1 day post-ovariectomy, analysis at 28 days.
Text: Representative samples were imaged by micro-computed tomography (μCT, Skyscan) with volume rendering snapshots of the tibia. For the osteoporosis study, representative samples were imaged and presented as volume rendering snapshots of the axial view of the tibial metaphysis region. For bone mineral density (BMD) measurements, the right tibia was removed and fixed in 10% NBF overnight. The tibia were then scanned by dual-energy X-ray absorptiometry (DXA) using a Norland pDEXA densitometer (Norland Medical Systems, White Plains, N.Y.). A region including the primary and secondary spongiosa was used to determine the BMD of the tibia. […] For the osteoporosis study, mice were treated beginning on the day after ovary removal. The treatment regimen for OSI-296 was 200 mg/kg every other day by oral gavage. ASLAN002 was administered at 50 mg/kg every other day by oral gavage. Treatment continued until the time of sacrifice at 28 days. […] To investigate the role of the MSP/RON pathway in bone loss due to post-menopausal osteoporosis, ovariectomies were performed in WT and RonTK−/− mice and bone loss was analyzed by dual-energy X-ray absorptiometry (DXA) and bone histomorphometry 28 days later. […] WT OVX mice were treated with ASLAN002 beginning 1 day post-ovariectomy. Mice were sacrificed 28 days post-ovariectomy for analysis.
The test system of experiment [4] is ERK. Briefly: Western blot of osteoclast lysates, ERK. The settings on record: osteoclasts. Type of experiment: cell-based, mice. As to the method:
as §2
Background: Immunoblotting shows a protein as a band on a membrane.

Experiment [5] has as its system c-Src. Briefly: Western blot of osteoclast lysates, phospho-Src. Type of experiment: cell-based, mice. The following applies: WT osteoclasts with MSP. How it is done: as §2
For experiment [6], the system named is PyMT-MSP tumor cells. Briefly: Intratibial PyMT-MSP tumor-induced osteolysis. In kind it is in vivo, mice.
Text: as §1
Hindlimb bones were excised from mice at the time of sacrifice and bones were fixed in 10% neutral-buffered formalin, decalcified in Formical-2000 (Decal Corporation, Tallman, N.Y.) for 8 days and embedded in paraffin for hematoxylin and eosin (H & E) or immunohistochemical staining. Osteoclast number was assessed as TRAP^+ multinucleated cells containing 4 or more nuclei and reported as TRAP^+ cells per field. Three sections per mouse and 5 fields per section were used for quantification with fields representing the entire length of the tibia. Tumor proliferation rate was reported as the number of cells which were positive for phospho-H3 staining compared to the number of unstained cells per field expressed as a percent. Three sections per mouse and 5 fields per section were used for quantification with analysis being restricted to within the bone marrow cavity. Immunohistochemical analysis was performed with heat-induced antigen retrieval in sodium-citrate buffer (Dako, Denmark). Primary antibodies used were anti-TRAP at 1:50 (Santa Cruz, sc-30833, Dallas, Tex.), anti-Ki67 at 1:100 (Santa Cruz, sc-12202S, Dallas, Tex.), anti-phosphoH3 at 1:100 (Cell Signaling, #9701, Beverly, Mass.), anti-NFATc1 at 1:50 (Santa Cruz, sc-13033, Dallas, Tex.), and anti-RON at 1:250 (Santa Cruz, sc-322, Dallas, Tex.). Bones from mice lacking RON were used as a negative control. Biotinylated secondary antibody was used with the EnVision^+ system HRP kit (Dako, Denmark) and nuclei counterstained with hematoxylin.
For in vivo experiments, the OSI-296 inhibitor was dissolved in 40% Trappsol with 0.01 M HCl, and mice were treated at a concentration of 200 mg/kg daily by oral gavage. Treatment began either 3 days after tumor cell injection for prophylactic experiments, or 3 weeks after tumor cell injection for therapeutic experiments. ASLAN002 was dissolved in 70% PEG400 with 1×PBS and mice were treated at a concentration of 50 mg/kg daily by oral gavage. muRANK-Fc was given at a concentration of 10 mg/kg every three days by intra-peritoneal injection. For the osteoporosis study, mice were treated beginning on the day after ovary removal. The treatment regimen for OSI-296 was 200 mg/kg every other day by oral gavage. ASLAN002 was administered at 50 mg/kg every other day by oral gavage. Treatment continued until the time of sacrifice at 28 days.

The target of experiment [7] is RON (Homo sapiens, UniProt Q04912). The following applies: from the cited IC50 values; cited from earlier work.
Sequence of RON (Q04912 25-1400): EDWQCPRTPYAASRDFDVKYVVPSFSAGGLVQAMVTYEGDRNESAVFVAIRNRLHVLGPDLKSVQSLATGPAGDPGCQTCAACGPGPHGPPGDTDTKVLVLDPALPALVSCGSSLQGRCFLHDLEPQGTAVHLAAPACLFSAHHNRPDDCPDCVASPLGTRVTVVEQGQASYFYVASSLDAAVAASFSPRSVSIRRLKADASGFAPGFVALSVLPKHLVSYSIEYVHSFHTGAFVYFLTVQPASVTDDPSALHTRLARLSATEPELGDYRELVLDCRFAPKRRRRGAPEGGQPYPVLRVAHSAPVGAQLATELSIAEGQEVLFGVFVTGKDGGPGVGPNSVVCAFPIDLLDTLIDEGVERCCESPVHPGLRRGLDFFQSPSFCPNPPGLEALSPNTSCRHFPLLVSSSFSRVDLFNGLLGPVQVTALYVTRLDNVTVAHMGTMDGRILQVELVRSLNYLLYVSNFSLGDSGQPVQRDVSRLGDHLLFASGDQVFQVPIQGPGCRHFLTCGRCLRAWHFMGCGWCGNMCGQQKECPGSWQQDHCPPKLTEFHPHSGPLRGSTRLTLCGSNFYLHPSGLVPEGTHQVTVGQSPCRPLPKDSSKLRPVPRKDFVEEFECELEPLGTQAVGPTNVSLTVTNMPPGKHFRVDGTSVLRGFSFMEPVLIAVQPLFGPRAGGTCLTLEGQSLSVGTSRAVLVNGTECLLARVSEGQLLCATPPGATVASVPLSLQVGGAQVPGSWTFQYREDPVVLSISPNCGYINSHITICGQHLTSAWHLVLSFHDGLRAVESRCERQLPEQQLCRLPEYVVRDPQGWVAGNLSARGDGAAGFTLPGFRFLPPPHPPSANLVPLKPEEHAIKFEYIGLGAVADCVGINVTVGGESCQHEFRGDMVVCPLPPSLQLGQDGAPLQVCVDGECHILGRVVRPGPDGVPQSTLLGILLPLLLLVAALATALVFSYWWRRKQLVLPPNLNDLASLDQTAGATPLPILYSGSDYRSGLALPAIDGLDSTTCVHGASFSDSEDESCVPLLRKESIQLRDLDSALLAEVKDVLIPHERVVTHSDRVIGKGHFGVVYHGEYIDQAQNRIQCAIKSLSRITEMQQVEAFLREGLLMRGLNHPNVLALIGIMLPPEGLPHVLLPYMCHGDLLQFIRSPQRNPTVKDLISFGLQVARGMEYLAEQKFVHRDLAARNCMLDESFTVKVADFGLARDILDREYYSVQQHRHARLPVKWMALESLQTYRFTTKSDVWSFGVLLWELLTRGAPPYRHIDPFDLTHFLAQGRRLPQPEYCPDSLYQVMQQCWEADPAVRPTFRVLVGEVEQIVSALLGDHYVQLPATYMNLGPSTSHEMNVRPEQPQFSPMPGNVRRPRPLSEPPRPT

With `CCOc1ccn(-c2ccc(F)cc2)c(=O)c1C(=O)Nc1ccc(Oc2ccnc(N)c2Cl)c(F)c1` [ASLAN002], the “osteolysis from DU4475 cells” value in experiment [1] is “prevented osteolysis”. Also, the “phosphorylated AKT” value in experiment [2] is given as “decrease in phosphorylated AKT”. In addition, in experiment [3], the “bone loss after ovary removal” value is recorded as “completely prevented bone loss”. Moreover, in experiment [4], the ERK activity entry is listed as “no effect”. The “MSP-increased Src phosphorylation” value in experiment [5] was “blocked”. Further, the inhibition of osteolysis in experiment [6] (PyMT-MSP tumors, treatment beginning three days after tumor injection, average) is on record as 6-10 fold. The “PyMT-MSP tumor growth in the bone” value in experiment [6] (caliper measurements) was “trend in decreased growth, but did not reach statistical significance”. In addition, the “selectivity between RON and Met” value in experiment [7] is recorded as “more selective for RON”.
